Patent EP3835316A1, “MOLECULES FOR USE TO TREAT OR PREVENT CARDIAC DISEASES” (Universiteit Gent, priority 2019, dated 2021)

Target: T1, Cx43 HC (Mus musculus, UniProt P23242)
T1 construct: left ventricular isolated cardiomyocytes were collected; endogenous in cells; host or cells: left ventricular cardiomyocytes acutely isolated from adult C57BL6 mice
Assay: Whole cell voltage-clamp recording of Cx43 HC unitary currents activated by combined RyR activation (caffeine)/[Ca2+]i elevation in isolated ventricular cardiomyocytes
Format: cell-based
Conditions: RyR inhibitors; [Ca2+]i clamped to 250 nM (10 mM BAPTA); Vm = -70 mV
Procedure: Adult C57BL6 mice, between 10 - 16 weeks, were heparinized (5000 IU/kg IP) and sacrificed by cervical dislocation. Following thoracotomy, the heart was quickly excised and then transferred to a Langendorff apparatus and perfused at a constant flow (^∼3 mL/min) and temperature (37°C). The heart was digested using collagenase and protease and left ventricular isolated cardiomyocytes were collected. Ca^2+-tolerant cells were used for the experiment for the next 6 hours. In case of Cx43 knockdown (KD) (Cx43^CreER(T)/fl) and respective control mice (Cre43^fl/fl) the isolation procedures were preceded by daily injection of tamoxifen to achieve global knockdown condition^25. Cre43^fl/fl mice are available from The Jackson Laboratory and the Cx43^CreER(T)/fl transgenic mouse strain can be made by any method known in the art.
Isolated ventricular cardiomyocytes and HeLa-Cx43 cells were studied under whole cell voltage-clamp to record membrane currents. Patch clamp experiments were conducted at room temperature (22 ± 1 °C). Fluo-4 (25 µM) was used to detect the [Ca^2+]i transients during the current recording.
Caffeine triggers two combined events, RyR activation and subsequent [Ca^2+]i elevation, and we next aimed to separate both processes. […] For simplicity, we further refer to the calculated concentrations in the following text. […]

T1 sequence (P23242 whole entry): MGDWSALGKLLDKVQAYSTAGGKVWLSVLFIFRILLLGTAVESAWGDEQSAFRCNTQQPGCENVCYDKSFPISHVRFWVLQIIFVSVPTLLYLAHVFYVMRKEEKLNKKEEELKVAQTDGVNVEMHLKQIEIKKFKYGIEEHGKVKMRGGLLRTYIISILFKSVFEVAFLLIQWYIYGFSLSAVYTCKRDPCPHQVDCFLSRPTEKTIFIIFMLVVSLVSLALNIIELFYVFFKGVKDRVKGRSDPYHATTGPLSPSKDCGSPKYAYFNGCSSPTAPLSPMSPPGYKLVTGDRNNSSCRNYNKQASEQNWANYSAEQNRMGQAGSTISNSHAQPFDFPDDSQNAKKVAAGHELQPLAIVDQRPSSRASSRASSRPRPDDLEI

Molecule	caffeine-induced Cx43 HC activation
ryanodine	did not inhibit
O=C1CN(/N=C/c2ccc(-c3ccc([N+](=O)[O-])cc3)o2)C(O)=N1 [dantrolene]	did not inhibit
